# Test results taken from PMC11492034, “The MRGPRX2-substance P pathway regulates mast cell migration” (iScience, 2024).
# How the values were obtained:
# [1] = biological target: T1, MRGPRX2 (Homo sapiens, UniProt Q96LB1); conditions: 15 min; 1 µM (PACAP1-38, PACAP1-27, PAMP9-20, VIP) or 10 µM (CGRP); concentration response 0.01-100 µM, n=1 of a mix of 2 donors
# Method: Degranulation was assessed by labelling of externalised CD63 (clone H5C6) as previously established[3] in response to substance P (Genscript, Oxford, UK), IgE/anti-IgE, anti-FcεRIα (clone AER37, Biolegend, London, UK) or C3a (CompTech, Tyler, USA). In all cases, cells were washed in PBS prior to incubation with live/dead™ reagent before analysis. […] Fc blocking reagent and antibodies were added, diluted in 1x permeabilisation buffer (BD Bioscience, Winnersh, UK), cells were washed and incubated with goat anti-mouse polyclonal antibodies labelled with PE or APC (Biolegend, London, UK). All cells were analysed on FACSymphony A5 or LSRFostessa instruments, and FlowJo software (BD Bioscience, Winnersh, UK). CD63 externalisation was used as a surrogate for MC degranulation according to established methodology.[52]^,[53]^,[54]
# Putative MRGPRX2 ligand activation of MRGPRX2 positive cells.
# (A) Gating showing degranulation, as measured by CD63 externalisation (x-axis), vs MRGPRX2 expression (y-
# axis) after 15 mins of treatment with labelled agonists at 1µM (PACAP1-38, PACAP1-27, PAMP9-20, VIP) or
# Percentage of cells in each quadrant is shown.
# (B) Degranulation of mast cells in response to agonists (0.01-100 µM) after 15 minutes of application, as
# shown. Data are n=1 of a mix of 2 donors.
# [2] = biological target: T1, MRGPRX2; conditions: cited from earlier work
# [3] = test system: neurokinin 1 receptor; conditions: 100 nM aprepitant, SP 0.03-10, immature mast cells, n=1
# Method: Chemotaxis assays were carried out using 8 μm pore ChemoTX™ assay plates (Neuroprobe, Gaithersburg, USA). Cells were first loaded with 5 μM Calcein-AM for 30 mins, 37°C/5% CO2 in cell culture medium prior to being washed and resuspended at a concentration of 1 x 10^6.ml^-1. Where appropriate cells were pre-incubated with Compound A or vehicle control. Chemoattractants were prepared in cell culture medium and placed in the lower chamber. The plate was constructed and 50 μl cell suspension applied to the upper part of the membrane of each well. No chemoattractant and equal chemoattractant on both sides of the chamber were used to control for random cell movement. The plate was incubated for 6 hours 37°C/5% CO2 before analysis of migrated cells, as follows. Cells were removed from above the membrane by pipetting, the membrane was then washed with PBS buffer containing 2mM EDTA and wiped using a rubber filter wiper (Neuroprobe). PBS/EDTA was applied to the upper side of the membrane and the plate incubated for 30 mins at 4°C before again being wiped. The plate was then centrifuged at 500 x g for 5 mins to capture cells attached to the underside of the membrane. […] Total migrated cells were counted as Live/Dead™-/Calcein-AM+/CD117+ cells or Live/Dead™-/Calcein-AM+ cells in each sample. […]
# [4] = test system: asthmatic subjects; conditions: cited from earlier work
# [5] = test system: MC progenitors; conditions: LTB4: ref 38, 40, 42; PGE2: no ref at this clause; cited from earlier work
# T1 sequence (Q96LB1 whole entry): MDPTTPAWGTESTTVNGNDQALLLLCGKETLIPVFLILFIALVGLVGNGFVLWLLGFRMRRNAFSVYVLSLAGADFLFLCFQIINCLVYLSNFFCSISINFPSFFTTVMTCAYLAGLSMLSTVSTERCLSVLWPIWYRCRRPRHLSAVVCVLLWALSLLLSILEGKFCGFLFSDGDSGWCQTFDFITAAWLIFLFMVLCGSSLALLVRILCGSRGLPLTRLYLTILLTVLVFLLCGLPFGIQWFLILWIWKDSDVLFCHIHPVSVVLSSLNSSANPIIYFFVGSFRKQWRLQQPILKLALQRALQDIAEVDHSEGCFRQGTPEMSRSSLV
molecule,measurement,setting,value
CGRP,"CD63 degranulation, neuropeptide",[1],minimal effect
cortistatin-14,binding to MRGPRX2,[2],binds
LL-37,binding to MRGPRX2,[2],binds
PAMP-20,binding to MRGPRX2,[2],binds
C[C@@H](O[C@H]1OCCN(Cc2n[nH]c(=O)[nH]2)[C@H]1c1ccc(F)cc1)c1cc(C(F)(F)F)cc(C(F)(F)F)c1 [aprepitant],inhibition of SP-induced chemotaxis,[3],did not
CSCC[C@H](NC(=O)[C@H](CC(C)C)NC(=O)CNC(=O)[C@H](Cc1ccccc1)NC(=O)[C@H](Cc1ccccc1)NC(=O)[C@H](CCC(N)=O)NC(=O)[C@H](CCC(N)=O)NC(=O)[C@@H]1CCCN1C(=O)[C@H](CCCCN)NC(=O)[C@@H]1CCCN1C(=O)[C@@H](N)CCCN=C(N)N)C(N)=O [SP],bronchoconstriction in asthmatic subjects,[4],does not induce bronchoconstriction
CCCCC/C=C\C[C@@H](O)/C=C/C=C/C=C\[C@@H](O)CCCC(=O)O [LTB4],effect on MC migration,[5],"known to attract MC progenitors, recruiting them from the circulation, and lose its effect upon MC maturation"
CCCCC[C@H](O)/C=C/[C@H]1[C@H](O)CC(=O)[C@@H]1C/C=C\CCCC(=O)O [PGE2],effect on MC migration,[5],more prone to regulating cell movement within the tissue
